Test results from publication PMC12737022, “Evaluations of Sex Differences in Dosimetry in Rats Following Perfluorohexanesulfonamide (PFHxSA) Oral Exposure” (Toxics, 2025).
Values joined by “and” are separate entries in the source; they are usually repeats but may differ in a detail not shown here. Equal entries are not always repeated. Where two headings read alike, the source gives them in different places.

Key:
[1] = In vitro-in vivo extrapolation (IVIVE) to estimate Css, human
Method: Intrinsic hepatic clearance (Clint) and fraction unbound in plasma (fup) were calculated from the experimental point estimate data as described in Dobreniecki et al.. Steady-state concentrations (Css) were derived based on zero-order uptake of an assumed daily dose from the gut (assuming 100% intestinal bioavailability) but considering hepatic clearance and non-metabolic renal clearance. Renal clearance was calculated using the glomerular filtration rate (a species-dependent constant) and the fraction unbound in blood (fub), estimated by adjusting the experimental fup for blood/plasma partitioning. The Css calculations, along with underlying species-specific physiologic scalars, are detailed in SI Texts S6 and S7. […]
hepatocytes). In equation (C), the scalar 2000 is used to adjust the assay cell number to be consistent with units of 1 million cells in the Clint equation.
Text S7 In Vitro-In Vivo Extrapolation (IVIVE) Calculations
The pharmacokinetic equation used to estimate expected steady-state concentrations (Css) is based on zero-order uptake of a daily dose from the gut (assuming 100% bioavailability) with both nonmetabolic renal clearance (Clrenal) and hepatic clearance (Clhepatic) (Equation D). The chemical input rate (ko) is the product of the intake dosage and the model body weight; this represents the numerator of Equation D. The Clrenal calculation is shown in the first part of the denominator of Equation D; it is the product of the species-dependent glomerular filtration rate (GFR) and the unbound fraction in blood (fub) of the parent compound. The Clhepatic calculation is shown in the second part of the denominator of Equation D; it is the product of the species-dependent liver blood flow constant, the fub of the parent compound, and the experimentally derived intrinsic clearance (shown in Equation C) divided by the sum of these three values. All values used in Equation D are for first-order conditions of metabolism in the […]

[2] = Plasma dosimetry of PFHxSA and PFHxS by targeted LC/MS/MS; format: in vivo, rat; settings: for concentration at 24 h: Sprague Dawley (Crl:CD(SD)), rat, plasma, oral
Excerpt: The plasma and liver samples for this investigation were provided by Mutlu et al.. The study design, including detailed descriptions of animal handling, procedures for dosing, clinical observations, termination, and collection of tissues, is reported elsewhere and is consistent with the ARRIVE guidelines. Briefly, male and female Sprague Dawley (SD) rats (Crl:CD(SD)) (n = 48/sex, 96 total) were purchased from Charles River Laboratory (Raleigh, NC, USA) and allowed to acclimate for ≥5 days before initial dosing. Rats were 8–10 weeks old at the time of exposure. PFHxSA dosing solutions in corn oil were prepared on Day 0 and used over the course of the study. Rats of both sexes (n = 5/sex, dose, and time point, plus eight vehicle controls per sex) were dosed by oral gavage (5 mL/kg body weight) once daily for five days. […] The formulation concentrations decreased from 100 mg/kg/day at half-log10 intervals until the lowest dose level, which was a full log10 interval below the next higher dose, giving eight dose levels (0.01 to 100 mg/kg/day or 0.025 µmol/kg/day to 250 µmol/kg/day) in addition to vehicle controls. Doses were administered in randomized order within ± 1 h on each day of dosing. […] Rats were euthanized 24 h after the last dose. Blood was collected via cardiac puncture with tripotassium ethylene diamine tetraacetic acid (K3EDTA) as an anti-coagulant and centrifuged to collect cell-free plasma. Liver was collected and flash-frozen in liquid nitrogen. Liver, plasma, and dosing formulation samples were frozen at the USEPA Center for Computational Toxicology and Exposure (CCTE), Durham, NC, USA. Tissue samples (plasma and liver, n = 96 each) were stored at ≤−70 °C prior to extraction; dosing formulation samples (n = 9) were stored at −20 °C.
Detailed information on solvents and standards used for targeted LC/MS/MS of PFHxSA and PFHxS can be found in SI Text S1 and SI Table S1. Plasma and liver preparations were modified from Conley et al.. Briefly, aliquots of plasma (25 µL) and liver (~10 mg) were spiked with PFOSA as an internal standard, as no isotope-labeled PFHxSA was available. Sample batches included up to 96 samples along with an MB, CCV, and LCS for QC. Commercial plasma (mixed-sex SD rat plasma) and liver (mixed-sex SD rat) were obtained from BioIVT (Westbury, NY, USA). Cold acetonitrile (ACN) with 0.1 M formic acid was used to precipitate proteins. Liver and plasma samples were prepared similarly, except that the livers were homogenized after solvent addition. Plasma samples were vortexed to mix before being chilled at −20 °C, after which samples were centrifuged at 5 °C and 10,000× g. Liver samples were chilled at −80 °C, then homogenized using an Omni International (Kennesaw, GA, USA) Bead Ruptor 24. Liver homogenates were centrifuged at 26,000× g and 5 °C. Supernatants from the extraction of both matrices were removed and stored at −20 °C until analysis. Refer to SI Text S4 for additional experimental details and information on calibration and QC parameters for quantitation of PFHxSA.
Targeted LC/MS/MS of PFHxSA was performed on a Sciex 4000 QTRAP LC/MS/MS system operated in negative ESI mode with MRM scanning. A Restek (Bellefonte, PA, USA) Raptor Polar X (100 mm × 2 mm, 2.7 µm) column was used for liquid chromatography. Isocratic elution occurred over 10 min with a 30:70 ratio of mobile phase A (10 mM ammonium formate): mobile phase B (60:40 ACN: methanol). Both mobile phases included 0.05% formic acid. The LOQs for PFHxSA were 0.100 µM in plasma and 0.351 µM in liver. Additional details of the instrument method parameters for targeted analysis of PFHxSA are provided in SI Table S5. The MRM transitions for the PFHxSA method are provided in SI Table S6. […]

In the case of `NS(=O)(=O)C(F)(F)C(F)(F)C(F)(F)C(F)(F)C(F)(F)C(F)(F)F` [PFHxSA, Perfluorohexanesulfonamide], the “Css (steady-state concentration)” value ([1]; Human, IVIVE-derived, assumes 1 mg/kg/day exposure) is reported as 1510 µM, the CL renal ([1]; Human, non-metabolic, GFR x fub, read-out: Clrenal (renal clearance) (converted)) is reported as 0.0817 mL/min and the “Predicted Css in humans higher than rats” value ([1]; cross-species IVIVE comparison) is reported as 3- to 10 fold. For the same molecule, the “Female PFHxSA plasma concentrations versus male plasma” value ([2]; at 30 and 100 mg/kg/day) was “at least two-fold higher”, the “Female plasma PFHxSA levels higher than males, on average” value ([2]; doses of 10 mg/kg/day and up) was 2.9 fold and the concentration at 24 h ([2]; female, 0.01 mg/kg/day, PFHxSA 0.01 mg/kg/day oral 5 days, female rats, mean ± SD, one sample estimated as half the LOQ, read-out: PFHxSA Female Plasma Conc.) was 0.117 ± 0.043 µM. For the same molecule, the concentration at 24 h ([2]; female, 0.1 mg/kg/day, PFHxSA 0.1 mg/kg/day oral 5 days, female rats, mean ± SD, read-out: PFHxSA Female Plasma Conc.) was 1.1 ± 0.11 µM, the concentration at 24 h ([2]; female, 0.1 mg/kg/day, PFHxSA 0.1 mg/kg/day oral 5 days, female, individual rats, read-out: PFHxSA Female Plasma Conc.) was 1.03 µM and 410 ng/mL and the concentration at 24 h ([2]; female, 0.3 mg/kg/day, PFHxSA 0.3 mg/kg/day oral 5 days, female rats, mean ± SD, read-out: PFHxSA Female Plasma Conc.) was 4.34 ± 1.6 µM. The concentration at 24 h ([2]; female, 1 mg/kg/day, PFHxSA 1 mg/kg/day oral 5 days, female rats, mean ± SD, read-out: PFHxSA Female Plasma Conc.) was 21.3 ± 9.1 µM, the concentration at 24 h ([2]; female, 3 mg/kg/day, PFHxSA 3 mg/kg/day oral 5 days, female rats, mean ± SD, read-out: PFHxSA Female Plasma Conc.) was 37.1 ± 13 µM and the concentration at 24 h ([2]; female, 10 mg/kg/day, PFHxSA 10 mg/kg/day oral 5 days, female rats, mean ± SD, read-out: PFHxSA Female Plasma Conc.) was 64.9 ± 17 µM. For the same molecule, the concentration at 24 h ([2]; female, 10 mg/kg/day, PFHxSA 10 mg/kg/day oral 5 days, female, individual rats, read-out: PFHxSA Female Plasma Conc.) was 19600 ng/mL and 49 µM, the concentration at 24 h ([2]; female, 30 mg/kg/day, PFHxSA 30 mg/kg/day oral 5 days, female rats, mean ± SD, read-out: PFHxSA Female Plasma Conc.) was 179 ± 66 µM and the concentration at 24 h ([2]; female, 100 mg/kg/day, PFHxSA 100 mg/kg/day oral 5 days, female, individual rats, read-out: PFHxSA Female Plasma Conc.) was 111000 ng/mL and 278 µM. The concentration at 24 h ([2]; male, 0.01 mg/kg/day, PFHxSA 0.01 mg/kg/day oral 5 days, male rats, single rat above the LOQ, read-out: PFHxSA Male Plasma Conc.) was 0.102 µM, the concentration at 24 h ([2]; male, 0.01 mg/kg/day, PFHxSA 0.01 mg/kg/day oral 5 days, male, individual rats, read-out: PFHxSA Male Plasma Conc.) was 40.6 ng/mL and 102 nM and the concentration at 24 h ([2]; male, 0.1 mg/kg/day, PFHxSA 0.1 mg/kg/day oral 5 days, male rats, mean ± SD, read-out: PFHxSA Male Plasma Conc.) was 0.796 ± 0.28 µM. The concentration at 24 h ([2]; male, 0.3 mg/kg/day, PFHxSA 0.3 mg/kg/day oral 5 days, male rats, mean ± SD, read-out: PFHxSA Male Plasma Conc.) was 4.26 ± 0.48 µM, the concentration at 24 h ([2]; male, 0.3 mg/kg/day, PFHxSA 0.3 mg/kg/day oral 5 days, male, individual rats, read-out: PFHxSA Male Plasma Conc.) was 1640 ng/mL and 3.49 µM and the concentration at 24 h ([2]; male, 1 mg/kg/day, PFHxSA 1 mg/kg/day oral 5 days, male rats, mean ± SD, read-out: PFHxSA Male Plasma Conc.) was 11.4 ± 2.2 µM. The concentration at 24 h ([2]; male, 1 mg/kg/day, PFHxSA 1 mg/kg/day oral 5 days, male, individual rats, read-out: PFHxSA Male Plasma Conc.) was 4950 ng/mL and 12.4 µM, the concentration at 24 h ([2]; male, 3 mg/kg/day, PFHxSA 3 mg/kg/day oral 5 days, male rats, mean ± SD, read-out: PFHxSA Male Plasma Conc.) was 27.1 ± 8 µM and the concentration at 24 h ([2]; male, 3 mg/kg/day, PFHxSA 3 mg/kg/day oral 5 days, male, individual rats, read-out: PFHxSA Male Plasma Conc.) was 9190 ng/mL and 23 µM. The concentration at 24 h ([2]; male, 10 mg/kg/day, PFHxSA 10 mg/kg/day oral 5 days, male rats, mean ± SD, read-out: PFHxSA Male Plasma Conc.) was 56.8 ± 14 µM, the concentration at 24 h ([2]; male, 10 mg/kg/day, PFHxSA 10 mg/kg/day oral 5 days, male, individual rats, read-out: PFHxSA Male Plasma Conc.) was 17700 ng/mL and 44.3 µM and the concentration at 24 h ([2]; male, 30 mg/kg/day, PFHxSA 30 mg/kg/day oral 5 days, male rats, mean ± SD, read-out: PFHxSA Male Plasma Conc.) was 81.2 µM. For the same molecule, the concentration at 24 h ([2]; male, 30 mg/kg/day, PFHxSA 30 mg/kg/day oral 5 days, male, individual rats, read-out: PFHxSA Male Plasma Conc.) was 27700 ng/mL and 69.4 µM, the concentration at 24 h ([2]; male, 100 mg/kg/day, PFHxSA 100 mg/kg/day oral 5 days, male rats, average, read-out: PFHxSA Male Plasma Conc.) was 62.1 µM and the concentration at 24 h ([2]; male, 100 mg/kg/day, PFHxSA 100 mg/kg/day oral 5 days, male, individual rats, read-out: PFHxSA Male Plasma Conc.) was 29500 ng/mL and 74 µM.
